Measurements from ChEMBL document CHEMBL3046358, “Multiple Pro-197 substitutions in the acetolactate synthase of rigid ryegrass (Lolium rigidum) and their impact on chlorsulfuron activity and plant growth” (Crop Prot, 2012).

Columns and labels:
Lolium rigidum [1] = test: Herbicidal activity against Lolium rigidum accession A10 assessed as emergence rate applied at 1 times pre-emergence recommended rate applied in pots where terbufos had been incorporated into the soil relative to untreated control; type: functional
Lolium rigidum [2] = test: Herbicidal activity against Lolium rigidum accession A07 assessed as fresh weight reduction applied at 1 times pre-emergence recommended rate relative to untreated control; type: functional; design: scale not given: the % may be the effect or the level left
Lolium rigidum [3] = test: Herbicidal activity against Lolium rigidum accession A07 assessed as emergence rate applied at 4 times pre-emergence recommended rate relative to untreated control; type: functional
Lolium rigidum [4] = test: Herbicidal activity against Lolium rigidum accession A13 assessed as fresh weight reduction applied at 4 times pre-emergence recommended rate relative to untreated control; type: functional; design: scale not given: the % may be the effect or the level left
Acetolactate synthase [5] = target: T1, Acetolactate synthase (Lolium rigidum, UniProt A7XBP7); test: Inhibition of acetolactate synthase Ala-197/Ala-197 mutant in Lolium rigidum accession A06 leaves extracts by acetolactate production assay; settings: read-out: I50
Lolium rigidum [6] = test: Herbicidal activity against Lolium rigidum accession A09 assessed as fresh weight reduction applied at 1 times pre-emergence recommended rate relative to untreated control; type: functional; design: scale not given: the % may be the effect or the level left
[7] = target: T2, Acetolactate synthase (Lolium rigidum) (UniProt A7XBP7); test: Resistance index, ratio of I50 for acetolactate synthase Ala-197/Ala-197 mutant in Lolium rigidum accession A06 leaves extracts to I50 for acetolactate synthase in Lolium rigidum accession A01 leaves extracts
T2 sequence (whole entry): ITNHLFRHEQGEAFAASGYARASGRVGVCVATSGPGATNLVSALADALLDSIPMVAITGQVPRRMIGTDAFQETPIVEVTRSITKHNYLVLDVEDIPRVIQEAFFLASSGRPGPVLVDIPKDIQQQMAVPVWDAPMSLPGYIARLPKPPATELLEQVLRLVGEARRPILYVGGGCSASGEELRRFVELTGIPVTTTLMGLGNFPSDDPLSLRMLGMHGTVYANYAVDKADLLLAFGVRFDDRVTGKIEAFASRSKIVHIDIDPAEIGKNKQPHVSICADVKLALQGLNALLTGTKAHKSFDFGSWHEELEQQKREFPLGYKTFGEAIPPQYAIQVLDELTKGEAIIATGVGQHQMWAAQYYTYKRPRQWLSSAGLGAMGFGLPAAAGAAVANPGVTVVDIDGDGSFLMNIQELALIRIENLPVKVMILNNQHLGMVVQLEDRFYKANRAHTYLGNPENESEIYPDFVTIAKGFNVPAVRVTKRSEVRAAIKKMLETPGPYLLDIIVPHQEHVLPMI

[8] = target: T2, Acetolactate synthase (Lolium rigidum); test: Resistance index, ratio of I50 for acetolactate synthase Pro-197/Arg-197 or Pro-197/Ser-197 or Pro/Val or Ala/Leu mutant in Lolium rigidum accession A17 leaves extracts to I50 for acetolactate synthase in Lolium rigidum accession A01 leaves extracts
Lolium rigidum [9] = test: Herbicidal activity against Lolium rigidum accession A02 assessed as emergence rate applied at 1 times pre-emergence recommended rate relative to untreated control; type: functional
Acetolactate synthase [10] = target: T1, Acetolactate synthase; test: Inhibition of acetolactate synthase Pro-197/Pro-197 mutant in Lolium rigidum accession A11 leaves extracts by acetolactate production assay; settings: read-out: I50
Lolium rigidum [11] = test: Herbicidal activity against Lolium rigidum accession A13 assessed as emergence rate applied at 1 times pre-emergence recommended rate relative to untreated control; type: functional
Lolium rigidum [12] = test: Herbicidal activity against Lolium rigidum accession A08 assessed as emergence rate applied at 1 times pre-emergence recommended rate applied in pots where terbufos had been incorporated into the soil relative to untreated control; type: functional
Lolium rigidum [13] = test: Herbicidal activity against Lolium rigidum accession A03 assessed as fresh weight reduction applied at 4 times pre-emergence recommended rate relative to untreated control; type: functional; design: scale not given: the % may be the effect or the level left
Acetolactate synthase [14] = target: T1, Acetolactate synthase; test: Inhibition of acetolactate synthase Ser-197/Ser-197 mutant in Lolium rigidum accession A21 leaves extracts by acetolactate production assay; settings: read-out: I50
Lolium rigidum [15] = test: Herbicidal activity against Lolium rigidum accession A09 assessed as emergence rate applied at 4 times pre-emergence recommended rate relative to untreated control; type: functional

COc1nc(C)nc(NC(=O)NS(=O)(=O)c2ccccc2Cl)n1 [CHLORSULFURON] showed an Activity (Lolium rigidum [1]) of 3%, an Activity (Lolium rigidum [2]) of 0% and an Activity (Lolium rigidum [3]) of 34%. The Activity (Lolium rigidum [4]) was 99%, the IC50 (Acetolactate synthase [5]) was 14100 nM and the Activity (Lolium rigidum [6]) was 78%. For the same compound, the Ratio [7] was 470, the Ratio [8] was 29 and the Activity (Lolium rigidum [9]) was 2%. For the same compound, the IC50 (Acetolactate synthase [10]) was 30 nM, the Activity (Lolium rigidum [11]) was 1% and the Activity (Lolium rigidum [12]) was 91%. The Activity (Lolium rigidum [13]) was 91%, the IC50 (Acetolactate synthase [14]) was 1580 nM and the Activity (Lolium rigidum [15]) was 1%.
